Assay results published in paper PMC9457746, “Synthesis of Sulfonamides Incorporating Piperidinyl-Hydrazidoureido and Piperidinyl-Hydrazidothioureido Moieties and Their Carbonic Anhydrase I, II, IX and XII Inhibitory Activity” (Molecules, 2022).
Like-named read-outs stand apart in the source and are kept apart here.

How the values were obtained:
hCA I = hCA I (Homo sapiens, UniProt P00915); test: stopped flow CO2 hydrase assay, hCA I inhibition
Description: (§1) An Applied Photophysics stopped-flow instrument has been used for assaying the CA catalyzed CO2 hydration activity using the Khalifah procedure [23]. The used indicator was phenol red (0.2 mM), the absorbance maximum was of 557 nm, and the buffer was 20 mM Hepes (pH 7.5), whereas 20 mM Na2SO4 were employed for maintaining the ionic strength constant. […] Uncatalyzed rates were subtracted from the observed total rates. […] Inhibitor and enzyme solutions were preincubated together for 15 min, for assuring the formation of the E–I complex. The inhibition constants were obtained by non-linear least squares using the Cheng–Prusoff equation, as reported earlier [24, 25, 26] and represent the mean from at least three different determinations.

hCA II = hCA II (Homo sapiens, UniProt P00918); test: stopped flow CO2 hydrase assay, hCA II inhibition
Description: as §1

hCA IX = hCA IX (Homo sapiens, UniProt Q16790); test: stopped flow CO2 hydrase assay, hCA IX inhibition
Description: as §1

hCA XII = hCA XII (Homo sapiens, UniProt O43570); test: stopped flow CO2 hydrase assay, hCA XII inhibition
Description: as §1

[1] = read-out: Ki (nM) hCAI, Table 2, thioureas 6a-y, recombinant enzyme, 15 min preincubation, mean of at least three determinations
[2] = read-out: Ki (nM) hCAII, Table 2, thioureas 6a-y, recombinant enzyme, 15 min preincubation, mean of at least three determinations
[3] = read-out: Ki (nM) hCAIX, Table 2, thioureas 6a-y, recombinant enzyme, 15 min preincubation, mean of at least three determinations
[4] = read-out: Ki (nM) hCAXII, Table 2, thioureas 6a-y, recombinant enzyme, 15 min preincubation, mean of at least three determinations

Sequence of hCA XII (O43570 25-354): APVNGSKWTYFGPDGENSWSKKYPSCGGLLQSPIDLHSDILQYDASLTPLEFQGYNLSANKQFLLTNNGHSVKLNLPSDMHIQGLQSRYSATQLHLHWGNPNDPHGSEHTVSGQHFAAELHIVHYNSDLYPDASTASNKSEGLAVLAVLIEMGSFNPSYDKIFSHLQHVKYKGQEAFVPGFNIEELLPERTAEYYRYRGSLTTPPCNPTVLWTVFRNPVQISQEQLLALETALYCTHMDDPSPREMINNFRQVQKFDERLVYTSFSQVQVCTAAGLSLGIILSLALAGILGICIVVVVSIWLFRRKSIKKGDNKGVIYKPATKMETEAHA
Sequence of hCA I (P00915 whole entry): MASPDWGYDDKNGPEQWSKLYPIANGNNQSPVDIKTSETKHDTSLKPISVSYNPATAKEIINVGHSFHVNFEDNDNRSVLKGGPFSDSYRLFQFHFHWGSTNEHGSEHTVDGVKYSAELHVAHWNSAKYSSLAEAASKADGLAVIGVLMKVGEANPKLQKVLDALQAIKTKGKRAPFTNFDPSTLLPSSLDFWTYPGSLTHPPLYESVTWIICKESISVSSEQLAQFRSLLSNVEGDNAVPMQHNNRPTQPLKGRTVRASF

Ki (hCA I) [nM] | Ki (hCA II) [nM] | Ki (hCA IX) [nM] | Ki (hCA XII) [nM] | melting point [°C] | Compound | other results
– | – | – | – | – | 2-(1-(3-sulfamoylbenzoyl)piperidine-4-carbonyl)-N-(p-tolyl)hydrazine-1-carbothioamide [Compound 6s] | Ki (hCA I; [1]): 56.5 nM; Ki (hCA II; [2]): 4.3 nM; increase in hCA II activity as compared to the 2-methyl analog (hCA II; versus 6r): about 8 fold; Ki (hCA IX; [3]): 9.3 nM; Ki (hCA XII; [4]): 2.6 nM; increase in hCA XII activity as compared to the 2-methyl analog (hCA XII; versus 6r): about 8 fold
– | – | – | – | – | 2-(1-(3-sulfamoylbenzoyl)piperidine-4-carbonyl)-N-(p-tolyl)hydrazine-1-carbothioamide [Compound 6t] | Ki (hCA I; [1]): 613 nM; Ki (hCA II; [2]): 58 nM; Ki (hCA IX; [3]): 28.4 nM; Ki (hCA XII; [4]): 31 nM
– | – | – | – | – | 4-(4-(4-(4-(Trifluoromethyl)phenyl)piperazine-1-carbonyl)piperidine-1-carbonyl)benzenesulfonamide [Compound 6c] | Ki (hCA IX; [3]): 7.2 nM; Ki (hCA XII; [4]): 4.5 nM
93.3 | 29.3 | 16.5 | 22.8 | – | NS(=O)(=O)c1ccc(C(=O)N2CCC(C(=O)NNC(=O)Nc3ccccc3)CC2)cc1 [Compound 5a] | –
164 | 15.3 | 25.1 | 13.6 | 214 to 215 | NS(=O)(=O)c1ccc(C(=O)N2CCC(C(=O)NNC(=O)Nc3ccccc3Cl)CC2)cc1 [Compound 5b, N-(2-Chlorophenyl)-2-(1-(4-sulfamoylbenzoyl)piperidine-4-carbonyl)hydrazinecarboxamide] | –
218 | 5.1 | 37.8 | 44.6 | – | NS(=O)(=O)c1ccc(C(=O)N2CCC(C(=O)NNC(=O)Nc3cccc(Cl)c3)CC2)cc1 [Compound 5c] | –
447 | 109 | 93.7 | 101 | 209 to 210 | NS(=O)(=O)c1ccc(C(=O)N2CCC(C(=O)NNC(=O)Nc3ccc(Cl)cc3)CC2)cc1 [Compound 5d, N-(4-Chlorophenyl)-2-(1-(4-sulfamoylbenzoyl)piperidine-4-carbonyl)hydrazinecarboxamide] | –
259 | 68.8 | 28.9 | 16.4 | – | NS(=O)(=O)c1ccc(C(=O)N2CCC(C(=O)NNC(=O)Nc3c(Cl)cccc3Cl)CC2)cc1 [Compound 5e] | –
562 | 24.6 | 22.5 | 8.4 | 229 to 230 | NS(=O)(=O)c1ccc(C(=O)N2CCC(C(=O)NNC(=O)Nc3ccccc3F)CC2)cc1 [Compound 5f, N-(2-fluorophenyl)-2-(1-(4-sulfamoylbenzoyl)piperidine-4-carbonyl)hydrazinecarboxamide] | –
277 | 17.7 | 89.7 | 19.4 | 214 to 215 | NS(=O)(=O)c1ccc(C(=O)N2CCC(C(=O)NNC(=O)Nc3cccc(F)c3)CC2)cc1 [Compound 5g, N-(3-fluorophenyl)-2-(1-(4-sulfamoylbenzoyl)piperidine-4-carbonyl)hydrazinecarboxamide] | –
60.6 | 12.1 | 2.1 | 24 | – | NS(=O)(=O)c1ccc(C(=O)N2CCC(C(=O)NNC(=O)Nc3ccc(F)cc3)CC2)cc1 [Compound 5h] | –
184 | 8.6 | 10.1 | 12.7 | 194 to 195 | NS(=O)(=O)c1ccc(C(=O)N2CCC(C(=O)NNC(=O)Nc3c(F)cccc3F)CC2)cc1 [Compound 5i, N-(2,6-difluorophenyl)-2-(1-(4-sulfamoylbenzoyl)piperidine-4-carbonyl)hydrazinecarboxamide] | –
67.6 | 25.4 | 34.5 | 60.4 | 238 to 240 | Cc1ccccc1NC(=O)NNC(=O)C1CCN(C(=O)c2ccc(S(N)(=O)=O)cc2)CC1 [Compound 5j, 2-(1-(4-Sulfamoylbenzoyl)piperidine-4-carbonyl)-N-(o-tolyl)hydrazinecarboxamide] | –
94.5 | 114 | 8.2 | 15.6 | 222 to 225 | Cc1cccc(NC(=O)NNC(=O)C2CCN(C(=O)c3ccc(S(N)(=O)=O)cc3)CC2)c1 [Compound 5k, 2-(1-(4-Sulfamoylbenzoyl)piperidine-4-carbonyl)-N-(m-tolyl)hydrazinecarboxamide] | –
81.7 | 22 | 8.1 | 36.7 | – | Cc1ccc(NC(=O)NNC(=O)C2CCN(C(=O)c3ccc(S(N)(=O)=O)cc3)CC2)cc1 [Compound 5l] | –
364 | 62.1 | 25.1 | 51.2 | 212 to 213 | Cc1cccc(C)c1NC(=O)NNC(=O)C1CCN(C(=O)c2ccc(S(N)(=O)=O)cc2)CC1 [Compound 5m, N-(2,6-Dimethylphenyl)-2-(1-(4-sulfamoylbenzoyl)piperidine-4-carbonyl)hydrazinecarboxanide] | –
165 | 47.8 | 34.4 | 44.7 | 216 to 217 | Cc1cc(C)cc(NC(=O)NNC(=O)C2CCN(C(=O)c3ccc(S(N)(=O)=O)cc3)CC2)c1 [Compound 5n, N-(3,5-Dimethylphenyl)-2-(1-(4-sulfamoylbenzoyl)piperidine-4-carbonyl)hydrazinecarboxamide] | –
451 | 185 | 8.6 | 19.6 | 219 to 220 | COc1ccccc1NC(=O)NNC(=O)C1CCN(C(=O)c2ccc(S(N)(=O)=O)cc2)CC1 [Compound 5o] | –
281 | 45.6 | 24 | 17 | 218 to 220 | COc1cccc(NC(=O)NNC(=O)C2CCN(C(=O)c3ccc(S(N)(=O)=O)cc3)CC2)c1 [Compound 5p, (3-Methoxyphenyl)-2-(1-(4-sulfamoylbenzoyl)piperidine-4-carbonyl)hydrazinecarboxamide] | increase of activity on hCA II on shifting the methoxy group into 3-position (hCA II; versus methoxy analogs 5o/5q): about 2 fold
487 | 99.7 | 8.9 | 9.1 | 228 to 230 | COc1ccc(NC(=O)NNC(=O)C2CCN(C(=O)c3ccc(S(N)(=O)=O)cc3)CC2)cc1 [Compound 5q] | –
322 | 19.8 | 23.2 | 15.6 | – | COc1ccc(NC(=O)NNC(=O)C2CCN(C(=O)c3ccc(S(N)(=O)=O)cc3)CC2)c(OC)c1 [Compound 5r] | –
77.8 | 48.2 | 40 | 20.1 | – | NS(=O)(=O)c1ccc(C(=O)N2CCC(C(=O)NNC(=O)NCc3ccccc3)CC2)cc1 [Compound 5t] | –
130 | 40.7 | 45.3 | 6.4 | – | COc1ccc(CNC(=O)NNC(=O)C2CCN(C(=O)c3ccc(S(N)(=O)=O)cc3)CC2)cc1 [Compound 5u] | selectivity for hCAXII compared with hCAII and hCAIX (hCA XII; hCA XII versus hCA II and hCA IX): about 6 fold
30.1 | 26.5 | 28.8 | 3.2 | 210 to 211 | NS(=O)(=O)c1ccc(C(=O)N2CCC(C(=O)NNC(=S)Nc3ccccc3)CC2)cc1 [Compound 6a, N-phenyl-2-(1-(4-sulfamoylbenzoyl)piperidine-4-carbonyl)hydrazine-1-carbothioamide] | selectivity of hCA XII inhibition on hCA I and hCA II (hCA XII; hCA XII versus hCA I and hCA II): about 8 fold
298 | 60.4 | 13.6 | 45 | 236 to 237 | NS(=O)(=O)c1ccc(C(=O)N2CCC(C(=O)NNC(=S)Nc3ccc([N+](=O)[O-])cc3)CC2)cc1 [Compound 6b, N-(4-Nitrophenyl)-2-(1-(4-sulfamoylbenzoyl)piperidine-4-carbonyl)hydrazinecarbothioamide] | selectivity on hCA IX compared to hCA I (hCA IX; hCA IX versus hCA I): about 22 fold; selectivity on hCA IX compared to hCA II (hCA IX; hCA IX versus hCA II): about 4 fold; selectivity on hCA IX compared to hCA XII (hCA IX; hCA IX versus hCA XII): ~3 fold
173 | 20.6 | 8.2 | 27.1 | 209 to 210 | NS(=O)(=O)c1ccc(C(=O)N2CCC(C(=O)NNC(=S)Nc3ccccc3Cl)CC2)cc1 [Compound 6d, N-(2-Chlorophenyl)-2-(1-(4-sulfamoylbenzoyl)piperidine-4-carbonyl)hydrazinecarbothioamide] | –
323 | 16.6 | 18 | 9.7 | 226 to 227 | NS(=O)(=O)c1ccc(C(=O)N2CCC(C(=O)NNC(=S)Nc3cccc(Cl)c3)CC2)cc1 [Compound 6e, N-(3-Chlorophenyl)-2-(1-(4-sulfamoylbenzoyl)piperidine-4-carbonyl)hydrazinecarbothioamide] | –
590 | 102 | – | – | – | NS(=O)(=O)c1ccc(C(=O)N2CCC(C(=O)NNC(=S)Nc3cccc(F)c3)CC2)cc1 [Compound 6o, N-(3-Fluorophenyl)-2-(1-(4-sulfamoylbenzoyl)piperidine-4-carbonyl)hydrazinecarbothioamide] | Ki (hCA IX; [3]): 5.6 nM
– | – | – | – | – | N-(1-Phenylethyl)-2-(1-(4-sulfamoylbenzoyl)piperidine-4-carbonyl)hydrazinecarbothioamide [Compound 6x] | Ki (hCA I; [1]): 76.6 nM; Ki (hCA II; [2]): 7.6 nM; Ki (hCA IX; [3]): 2.9 nM; Ki (hCA XII; [4]): 10.4 nM
